Laboratory results taken from patent US9918941B2 (Eastbrand Holding GMBH, priority 2012, dated 2018).

Experiments:
[1] = tested on: Carrageenin-induced edema in the paw; experiment: Anti-inflammatory activity, Carrageenin-induced edema in the paw (Winter, Risley and Nuss); format: in vivo, Sprague Dawley rats; conditions: rats, ± e.s.
[2] = tested on: acute chemical visceral pain model; experiment: Analgesic activity, abdominal contraction test with acetic acid (Writhing Test); format: in vivo, Swiss rats; conditions: inhibition of number of contractions vs control animals
Procedure: Adult male Swiss rats were used in the assay, 28-30 g in weight, 10 animals per treatment group or for each assessed dose level. 1-The analgesic activity/action was assessed by using an acute chemical visceral pain model, the abdominal contraction test with acetic acid (Writhing Test) (Miranda, H; Puig, […]. Synergism between paracetamol and nonsteroidal anti-inflammatory drugs in experimental acute pain. Pain (12) 2006. 22-28) ([…]. The Type of Analgesic-Receptor interaction involved in certain analgesic assays. European Journal of Pharmacology 16 (1971) 63-66. North Holland Publishing Company) […] The antinociceptive activity was expressed as the inhibition percentage of the number of contractions observed in the animals in the groups treated at each of the assessed dose levels, with respect to the number of contractions in the study control animals.

gastric mucus = experiment: Gastric tolerance, Pisanti-Volterra method; format: in vivo, Sprague Dawley rats; conditions: rats, score 0 (normal stomach) to 6 (perforated ulcer)
Text: The following scores were attributed according to the type and intensity of the injury observed: • Score 0=Normal stomach without injury; 1=Haemorrhaging points; 2=Haemorrhaging diffusion (reddening of the surface); 3=1-5 small ulcers (<3 mm); 4=Large number of small ulcers or a deep isolated ulceration; 5=Many ulcers of various size; 6=Perforated ulcer. • The degree of gastric injury is defined by the average score; the higher score corresponds to a greater gastric injury

[3] = Degradation / related substances (USP analytical method); format: physicochemical; conditions: reaction mixture up to 60° C. and gelation, finished microcapsules
Text: No related substances derived from the degradation of diclofenac mentioned in USP were detected in HPSC.
Only 2% were found above 1000, and only 1% under 250 micron.

Compound | % Inflammation inhibition 1st hour ([1]; Dose: 12.5 mg/kg) | % Inflammation inhibition 2nd hour ([1]; Dose: 12.5 mg/kg) | % Inflammation inhibition 3rd hour ([1]; Dose: 12.5 mg/kg) | % Inflammation inhibition 4th hour ([1]; Dose: 12.5 mg/kg) | % Inflammation inhibition 5th hour ([1]; Dose: 12.5 mg/kg) | % Inflammation inhibition 2nd hour ([1]; Dose: 25.0 mg/kg) | % Inflammation inhibition 3rd hour ([1]; Dose: 25.0 mg/kg) | % Inflammation inhibition 4th hour ([1]; Dose: 25.0 mg/kg) | % Inflammation inhibition 5th hour ([1]; Dose: 25.0 mg/kg) | % Inflammation inhibition 2nd hour ([1]; Dose: 50.0 mg/kg) | % Inflammation inhibition 3rd hour ([1]; Dose: 50.0 mg/kg) | % Inflammation inhibition 4th hour ([1]; Dose: 50.0 mg/kg) | % Inflammation inhibition 5th hour ([1]; Dose: 50.0 mg/kg) | Analgesic Activity (% Inhibition) Avg. Score ± e.s. ([2]; Dose: 12.5 mg/kg) | Analgesic Activity (% Inhibition) Avg. Score ± e.s. ([2]; Dose: 25.0 mg/kg) | Degree of Gastric Injury Avg. score ± e.s. (gastric mucus; Dose: 12.5 mg/kg) | Degree of Gastric Injury Avg. score ± e.s. (gastric mucus; Dose: 25.0 mg/kg) | Degree of Gastric Injury Avg Score ± e.s. (gastric mucus; Dose: 50.0 mg/kg) | degradation / related substances [3]
O=C(O)Cc1ccccc1Nc1c(Cl)cccc1Cl [diclofenac potassium] | 37.2 ± 12.2% | 42.5 ± 13.1% | 28.3 ± 9.5% | 30.6 ± 9.8% | 29.7 ± 10.8% | 36.4 ± 8.49% | 28.0 ± 13.56% | 23.3 ± 6.66% | 15.7 ± 5.61% | 45.8 ± 8.3% | 41.4 ± 6.9% | 47.2 ± 5.2% | 43.2 ± 4.5% | 53.23 ± 5.53% | 67.26 ± 4.62% | 2.64 ± 0.59 | 3.81 ± 0.35 | 4.80 ± 0.50 | 
O=C(O)Cc1ccccc1Nc1c(Cl)cccc1Cl [diclofenac, 2-((2,6 dichlorophenyl)amino)phenyl acetic (diclofenac) acid] |  |  |  |  |  |  |  |  |  |  |  |  |  |  |  |  |  |  | not degraded
